Counter-ions that a name gives are not always drawn.
Assays:
human 5-HT5A receptor = biological target: T1, human 5-HT5A receptor (Homo sapiens, UniProt P47898); assay: Test on a human 5-HT5A receptor binding inhibition ([3H]5-CT); settings: membrane from HEK293 cells for forced expression of human 5-HT5A receptor; Ki calculated from IC50 and Kd of [3H]5-CT (4.95 nM)
T1 construct: expressed in transfected cells; membranes used
Experimental: The ORF (open reading frame; protein coding region) of a human 5-HT5A receptor (Genbank AF498985) was cloned from a human hippocampus cDNA library, and then inserted into a pCR2.1 vector (Invitrogen), and Escherichia coli containing the plasmid was cultured in a large amount. Next, the full-length cDNA sequence of the human 5-HT5A receptor was analyzed, and recombined into a pcDNA3.1 vector (Invitrogen) as an expression vector and cultured in a large amount. HEK293 established cells (ATCC) derived from the human fetal kidney were seeded, the expression plasmid (1 μg) obtained above were added thereto with LIPOFECTAMINE 2000 (Invitrogen; 2 μl), the gene was transfected into HEK293 cells, and the expression cells were screened with a drug-resistant marker, Geneticin (G418 sulfate 500 μg/ml; Kanto Chemical Co., Inc.). Thus prepared recombinant cells which expressed the gene were cultured in a medium containing D-MEM (Dulbecco's modified eagle medium, Sigma), 10% FCS (Fetal calf serum: fetal bovine serum), 1% Pc./Sm (Penicillin/Streptomycin, Invitrogen), and 500 μg/ml G418 for 3 days. These experimental operations followed a manual for gene operation experiment and an instruction appended in a reagent, and the like, such as a known method (Sambrook, J. et al, Molecular Cloning-A Laboratory Manual”, Cold Spring Harabor laboratory, NY, 1989).
HEK293 cells for forced expressions of a human 5-HT5A receptor were cultured in a F500 plate, and scraped with a scraper. After centrifugation, the precipitate was collected, and an incubation buffer (50 mM Tris (HCl) (pH 7.4), 10 mM MgSO4, and 0.5 mM EDTA (ethylenediamine tetraacetic acid)) was added thereto. After homogenization, it was further centrifuged, and the incubation buffer was added to the precipitate, followed by thoroughly suspending. The operation was repeated, and protein concentration was measured, thereby completing preparation of the membrane.
A solution of the compound to be tested and 100 μM 5-CT (5-carboxamidetriptamine) in DMSO was added to a 96-well plate at 2 μl/well, suspended in an incubation buffer, and a membrane from HEK293 cells for forced expressions of a human 5-HT5A receptor prepared at 200 μg/ml was added at 100 μl/well. After incubation at room temperature for 15 minutes, a [^3H]5-CT solution (2 nM [^3H]5-CT, incubation buffer) was added thereto at 100 μl/well.
Separately, 100 μl of the solution was distributed into a liquid scintillation vial, and 2 ml of Aquasol II (registered trademark) was added thereto, followed by stirring. Then, radioactivity was measured by a liquid scintillation counter. It was incubated at 37° C. for 60 minutes. The reaction mixture was sucked into 96-well GF/C filter plate that had been pre-treated with 0.2% polyethyleneimine, and washed six times with an ice-cooled, 50 mM Tris (pH 7.5) buffer. The GF/C filter plate was dried.
Microscint TMPS (registered trademark) was added thereto at 40 μl/well. Radioactivity remaining on the GF/C filter plate was measured by a top counter.
The [^3H]5-CT binding inhibiting activity by the compound to be tested in each experiment was determined as an IC50 value with a radioactivity upon addition of DMSO alone being 0% inhibition, and a radioactivity upon addition of 1 μM 5-CT being 100% inhibition. Separately, Ki values were calculated from the Kd value of the [^3H]5-CT determined from Scatchard analysis, by the following equation.
Ki=IC50 (1+Concentraion of ligand added/Kd (4.95 nM))

[1] = tested on: mouse in which hyperactivity was caused by methamphetamine (MAP) or MK-801; assay: Improvement effect on increase in motion induced by methamphetamine or MK-801 in mice; format: in vivo; settings: male ICR mouse; compound oral at a dose of 0.1 mg/kg; MK-801 0.3 mg/kg i.p.; motion for 60 minutes; P<0.05
Experimental: The improvement effect of compound of formula (I) was evaluated by measuring the quantity of motion by IR irradiation when a compound was administered to a mouse in which hyperactivity was caused by methamphetamine (hereinafter, simply referred to as “MAP”) or MK-801, known as an animal model of schizophrenia.
The animal was taken out of the breeding cage, orally administered with a compound to be tested, and then placed into a cage for breeding. After 30 minutes, the animal was put into a cage for measurement, and motion with the compound to be tested alone was measured. After 30 to 90 minutes, the animal was taken out, and intraperitoneally administered with a drug for increasing the motion (MAP; 1 mg/kg or MK-801; 0.3 mg/kg, dissolved in a physiological saline, respectively). Then, motion for a certain period of time (60 minutes) was measured by using a motion measurement device
(CompACT AMS from Muromachi Kikai Co., Ltd.) by means of an infrared sensor.
For normal mouse (a mouse administered with physiological saline) and mouse administered with a drug for increasing the motion, a Student's T test was performed for evaluation for each interval. For a mouse group administered with the compound to be tested, an assay was performed using a solvent (vehicle) group and a Dunnett's T test. […]

T1 sequence (P47898 whole entry): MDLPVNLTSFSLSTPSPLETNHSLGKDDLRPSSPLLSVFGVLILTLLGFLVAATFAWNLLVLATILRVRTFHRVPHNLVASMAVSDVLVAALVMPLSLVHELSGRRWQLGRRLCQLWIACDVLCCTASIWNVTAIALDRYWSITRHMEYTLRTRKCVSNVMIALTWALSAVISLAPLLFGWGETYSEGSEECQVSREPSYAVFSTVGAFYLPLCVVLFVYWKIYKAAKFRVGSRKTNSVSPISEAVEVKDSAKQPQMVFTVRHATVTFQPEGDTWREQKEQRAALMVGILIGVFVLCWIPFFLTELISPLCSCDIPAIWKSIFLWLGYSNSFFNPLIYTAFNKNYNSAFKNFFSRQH

| Structure (SMILES) | Ki (human 5-HT5A receptor) [nM] | inhibition of hyperactivity caused by MK-801 [1] |
| --- | --- | --- |
| NC(N)=NC(=O)c1ccc2cccc(-c3c(F)cccc3Cl)c2c1 [Example 1, 8-(2-chloro-6-fluorophenyl)-N-(diaminomethylene)-2-naphthamide hydrochloride] | 0.96 | significantly inhibited |
| NC(N)=NC(=O)c1ccc2cccc(-c3c(F)cncc3Cl)c2c1 [Example 148] | 0.3 to 3 |  |
| N#Cc1cc(F)cc(F)c1-c1cccc2ccc(C(=O)N=C(N)N)cc12 [Example 149] | 0.3 to 3 |  |
| NC(N)=NC(=O)c1ccc2cccc(-c3ccc(Cl)cc3O)c2c1 [Example 150] | 0.3 to 3 |  |
| NC(N)=NC(=O)c1ccc2cccc(-c3ncc(Cl)cc3Cl)c2c1 [Example 151] | 0.3 to 3 |  |
| Cc1cc(Cl)cnc1-c1cccc2ccc(C(=O)N=C(N)N)cc12 [Example 152] | 3 to 30 |  |
| NC(N)=NC(=O)c1ccc2cccc(-c3ccc(Cl)cn3)c2c1 [Example 153] | 3 to 30 |  |
| NC(N)=NC(=O)c1ccc2cccc(-c3cccc(C(F)(F)F)n3)c2c1 [Example 154] | 3 to 30 |  |
| N#Cc1cc(F)c(-c2cccc3ccc(C(=O)N=C(N)N)cc23)c(F)c1 [Example 155] | 0.3 to 3 |  |
| NC(N)=NC(=O)c1ccc2ccc(Cl)c(-c3ccncc3F)c2c1 [Example 156] | 0.3 to 3 |  |
| NC(N)=NC(=O)c1ccc2ccc(Cl)c(-c3ccncc3Cl)c2c1 [Example 157] | 0.3 to 3 |  |
| Cc1nc(-c2cccc3ccc(C(=O)N=C(N)N)cc23)ccc1F [Example 158] | 30 to 300 |  |
| COc1cccc(-c2cccc3ccc(C(=O)N=C(N)N)cc23)n1 [Example 159] | 3 to 30 |  |
| NC(N)=NC(=O)c1ccc2ccc(F)c(-c3ccncc3Cl)c2c1 [Example 160] | 0.3 to 3 |  |
| NC(N)=NC(=O)c1ccc2ccc(F)c(-c3ccccc3O)c2c1 [Example 161] | 0.3 to 3 |  |
| Cc1ccc2ccc(C(=O)N=C(N)N)cc2c1-c1ccccc1O [Example 162] | 3 to 30 |  |
| Cc1nc(C2CC2)sc1-c1cccc2ccc(C(=O)N=C(N)N)cc12 [Example 163] | 3 to 30 |  |
| N#Cc1cccc(Cl)c1-c1cccc2ccc(C(=O)N=C(N)N)cc12 [Example 164] | 3 to 30 |  |
| NC(N)=NC(=O)c1ccc2cccc(-c3nccc4ccccc34)c2c1 [Example 165] | 3 to 30 |  |
| Cc1cc(-c2cccc3ccc(C(=O)N=C(N)N)cc23)cc(C)n1 [Example 166] | 3 to 30 |  |
| NC(N)=NC(=O)c1ccc2cccc(-c3cccc4ccncc34)c2c1 [Example 167] | 0.3 to 3 |  |
| NC(N)=NC(=O)c1ccc2cccc(-c3ncccc3C(F)(F)F)c2c1 [Example 168] | 30 to 300 |  |
| NC(N)=NC(=O)c1ccc2cccc(-c3ncc(F)cc3Cl)c2c1 [Example 169] | 0.3 to 3 |  |
| N#Cc1cc(-c2cccc3ccc(C(=O)N=C(N)N)cc23)ccn1 [Example 170] | 3 to 30 |  |
| NC(=O)c1cc(-c2cccc3ccc(C(=O)N=C(N)N)cc23)ccn1 [Example 171] | 30 to 300 |  |
| NC(N)=NC(=O)c1ccc2cccc(-c3ccnc(Cl)c3F)c2c1 [Example 172] | 3 to 30 |  |
| NC(N)=NC(=O)c1ccc2cccc(-c3c[nH]c4ccccc34)c2c1 [Example 173] | 3 to 30 |  |
| COc1nc(C)ccc1-c1c(Cl)ccc2ccc(C(=O)N=C(N)N)cc12 [Example 174] | 0.3 to 3 |  |

Reference: patent US20110306621A1, “ACYLGUANIDINE DERIVATIVES” (priority 2009, published 2011)
